According to US9187472B2 (AbbVie Inc., priority 2012, dated 2015):

Tested on: PC3 cells
Assay: NAMPT Cell Proliferation Assay
Type: cell-based
Conditions: Homo sapiens, PC-3, 120 h, 5 days incubation, cell viability by Cell Titer Glo
Procedure: NAMPT Cell Proliferation Assay
PC3 cells were seeded in 96-well black plates (Corning #3904) at 500 cells/well in 90 μl of RPMI media containing 10% heat-inactivated FBS and incubated overnight at 37° C. and 5% CO2 to allow cells to attach to wells. The following day, test compounds were serially diluted in neat DMSO to 1000× final concentrations prior to dilution with RPMI media to 10× and 1% DMSO. Ten μL of the 10× compounds were then transferred to wells containing cells to produce a dose response of 10-fold dilutions from 10 μM to 1×10^−5 μM. Cells were incubated for 5 days at 37° C. and 5% CO2, then cell viability was measured using Cell Titer Glo reagent (Promega #G7571). Percent inhibition values were calculated and fitted to a sigmoidal dose response curves using Assay Explorer software to determine IC50s.

| Compound | IC50 |
| --- | --- |
| CC(C)Cn1nccc1-c1ccc(C(=O)NCc2ccn3ccnc3c2)s1 [Example 899, N-(imidazo[1,2-a]pyridin-7-ylmethyl)-5-[1-(2-methylpropyl)-1H-pyrazol-5-yl]thiophene-2-carboxamide] | 181 nM |
| CC(C)(C)OC(=O)N1CCC(c2ccc(NC(=O)Cc3ccn4ccnc4c3)cc2)CC1 [Example 900, tert-butyl 4-{4-[(imidazo[1,2-a]pyridin-7-ylacetyl)amino]phenyl}piperidine-1-carboxylate] | 17.4 nM |
| O=C(CC1CCCC1)Nc1ccc(C(=O)NCc2cn3c(Cl)cnc3cn2)cc1 [Example 901, N-[(3-chloroimidazo[1,2-a]pyrazin-6-yl)methyl]-4-[(cyclopentylacetyl)amino]benzamide] | 865 nM |
| O=C(Cc1ccn2ccnc2c1)Nc1ccc(C2CCN(C(=O)c3ccc(F)cc3F)CC2)cc1 [Example 902, N-{4-[1-(2,4-difluorobenzoyl)piperidin-4-yl]phenyl}-2-(imidazo[1,2-a]pyridin-7-yl)acetamide] | 10.8 nM |
| CC(C)C(=O)N1CCC(c2ccc(NC(=O)Cc3ccn4ccnc4c3)cc2)CC1 [Example 903, 2-(imidazo[1,2-a]pyridin-7-yl)-N-{4-[1-(2-methylpropanoyl)piperidin-4-yl]phenyl}acetamide] | 35.2 nM |
| CC(C)C(=O)N1CCC(c2ccc(NC(=O)NCc3ccn4c(Cl)cnc4c3)cc2)CC1 [Example 904, 1-[(3-chloroimidazo[1,2-a]pyridin-7-yl)methyl]-3-{4-[1-(2-methylpropanoyl)piperidin-4-yl]phenyl}urea] | 282 nM |
| O=C(CC1CCCC1)Nc1ccc(C(=O)NCc2cn3ccnc3cn2)c(F)c1 [Example 908, 4-[(cyclopentylacetyl)amino]-2-fluoro-N-(imidazo[1,2-a]pyrazin-6-ylmethyl)benzamide] | 11.2 nM |
| O=C(NCc1ccn2ccnc2c1)c1ccc(C(=O)NCc2cc(F)ccc2F)cc1 [Example 909, N-(2,5-difluorobenzyl)-N′-(imidazo[1,2-a]pyridin-7-ylmethyl)benzene-1,4-dicarboxamide] | 7210 nM |
| CC(C)C1CCCN1C(=O)c1ccc(C(=O)NCc2ccn3ccnc3c2)cc1 (centres unmarked) [Example 910, N-(imidazo[1,2-a]pyridin-7-ylmethyl)-4-{[2-(propan-2-yl)pyrrolidin-1-yl]carbonyl}benzamide] | > 10000 nM |
| CC(C)(C)Cc1nnc(-c2ccc(NC(=O)Cc3ccn4ccnc4c3)cc2)o1 [Example 911, N-{4-[5-(2,2-dimethylpropyl)-1,3,4-oxadiazol-2-yl]phenyl}-2-(imidazo[1,2-a]pyridin-7-yl)acetamide] | 42.5 nM |
| O=C(NCc1ccn2ccnc2c1)c1ccc(C2CCN(C(=O)c3cccnc3Cl)CC2)cc1 [Example 913, 4-{1-[(2-chloropyridin-3-yl)carbonyl]piperidin-4-yl}-N-(imidazo[1,2-a]pyridin-7-ylmethyl)benzamide] | 14.4 nM |
| CC(C)=CC(=O)N1CCC(c2ccc(C(=O)NCc3ccn4ccnc4c3)cc2)CC1 [Example 914, N-(imidazo[1,2-a]pyridin-7-ylmethyl)-4-[1-(3-methylbut-2-enoyl)piperidin-4-yl]benzamide] | 77.2 nM |
| COc1ccc(C(=O)N2CCC(c3ccc(C(=O)NCc4ccn5ccnc5c4)cc3)CC2)cc1F [Example 915, 4-[1-(3-fluoro-4-methoxybenzoyl)piperidin-4-yl]-N-(imidazo[1,2-a]pyridin-7-ylmethyl)benzamide] | 174 nM |
| O=C(NCc1ccn2ccnc2c1)c1ccc(C2CCN(C(=O)COc3ccc(F)cc3)CC2)cc1 [Example 918, 4-{1-[(4-fluorophenoxy)acetyl]piperidin-4-yl}-N-(imidazo[1,2-a]pyridin-7-ylmethyl)benzamide] | 233 nM |
| COc1cc(OC)cc(C(=O)N2CCC(c3ccc(C(=O)NCc4ccn5ccnc5c4)cc3)CC2)c1 [Example 919, 4-[1-(3,5-dimethoxybenzoyl)piperidin-4-yl]-N-(imidazo[1,2-a]pyridin-7-ylmethyl)benzamide] | 101 nM |
| COc1ccccc1CC(=O)N1CCC(c2ccc(C(=O)NCc3ccn4ccnc4c3)cc2)CC1 [Example 921, N-(imidazo[1,2-a]pyridin-7-ylmethyl)-4-{1-[(2-methoxyphenyl)acetyl]piperidin-4-yl}benzamide] | 157 nM |
| O=C(NCc1ccn2ccnc2c1)c1ccc(C2CCN(C(=O)C(CO)c3ccccc3)CC2)cc1 (centres unmarked) [Example 922, 4-[1-(3-hydroxy-2-phenylpropanoyl)piperidin-4-yl]-N-(imidazo[1,2-a]pyridin-7-ylmethyl)benzamide] | 9.95 nM |
| CC(=O)c1ccccc1C(=O)N1CCC(c2ccc(C(=O)NCc3ccn4ccnc4c3)cc2)CC1 [Example 924, 4-[1-(2-acetylbenzoyl)piperidin-4-yl]-N-(imidazo[1,2-a]pyridin-7-ylmethyl)benzamide] | 18 nM |
| CC(C(=O)N1CCC(c2ccc(C(=O)NCc3ccn4ccnc4c3)cc2)CC1)c1ccccc1 (centres unmarked) [Example 926, N-(imidazo[1,2-a]pyridin-7-ylmethyl)-4-[1-(2-phenylpropanoyl)piperidin-4-yl]benzamide] | 9.69 nM |
| CCN(CC)CCC(=O)N1CCC(c2ccc(C(=O)NCc3ccn4ccnc4c3)cc2)CC1 [Example 928, 4-[1-(N,N-diethyl-beta-alanyl)piperidin-4-yl]-N-(imidazo[1,2-a]pyridin-7-ylmethyl)benzamide] | 106 nM |
| CC(C)CS(=O)(=O)CC(=O)N1CCC(c2ccc(C(=O)NCc3ccn4ccnc4c3)cc2)CC1 [Example 929, N-(imidazo[1,2-a]pyridin-7-ylmethyl)-4-(1-{[(2-methylpropyl)sulfonyl]acetyl}piperidin-4-yl)benzamide] | 24.7 nM |
| Cc1cc(C(=O)N2CCC(c3ccc(C(=O)NCc4ccn5ccnc5c4)cc3)CC2)cc(Cl)n1 [Example 932, 4-{1-[(2-chloro-6-methylpyridin-4-yl)carbonyl]piperidin-4-yl}-N-(imidazo[1,2-a]pyridin-7-ylmethyl)benzamide] | 30.3 nM |
| COc1cccc(CC(=O)N2CCC(c3ccc(C(=O)NCc4ccn5ccnc5c4)cc3)CC2)c1 [Example 933, N-(imidazo[1,2-a]pyridin-7-ylmethyl)-4-{1-[(3-methoxyphenyl)acetyl]piperidin-4-yl}benzamide] | 71.7 nM |

Stronger by IC50, values ahead:

| IC50 | Compound |
| --- | --- |
| 0.994 nM | O=C(Cc1ccn2ccnc2c1)Nc1ccc(C2CCN(C(=O)c3ccccc3F)CC2)cc1 [Example 905, N-{4-[1-(2-fluorobenzoyl)piperidin-4-yl]phenyl}-2-(imidazo[1,2-a]pyridin-7-yl)acetamide] |
| 4.17 nM | CC(C)Cc1cc(-c2ccc(C(=O)NCc3ccn4ccnc4c3)s2)n(C)n1 [Example 906, N-(imidazo[1,2-a]pyridin-7-ylmethyl)-5-[1-methyl-3-(2-methylpropyl)-1H-pyrazol-5-yl]thiophene-2-carboxamide] |
| 7.09 nM | CC(C)Cc1cc(-c2ccc(C(=O)NCc3ccn4ccnc4c3)s2)n(Cc2ccccc2)n1 [Example 907, 5-[1-benzyl-3-(2-methylpropyl)-1H-pyrazol-5-yl]-N-(imidazo[1,2-a]pyridin-7-ylmethyl)thiophene-2-carboxamide] |
| 8.72 nM | CC(C)(C)OC(=O)N1CCC(c2ccc(NC(=O)NCc3ccn4ccnc4c3)c(F)c2)CC1 [Example 912, tert-butyl 4-(3-fluoro-4-{[(imidazo[1,2-a]pyridin-7-ylmethyl)carbamoyl]amino}phenyl)piperidine-1-carboxylate] |
| 6.73 nM | CC1=C(C(=O)N2CCC(c3ccc(C(=O)NCc4ccn5ccnc5c4)cc3)CC2)CCC1 [Example 916, N-(imidazo[1,2-a]pyridin-7-ylmethyl)-4-{1-[(2-methylcyclopent-1-en-1-yl)carbonyl]piperidin-4-yl}benzamide] |
| 6.79 nM | CCC(CC)C(=O)N1CCC(c2ccc(C(=O)NCc3ccn4ccnc4c3)cc2)CC1 [Example 917, 4-[1-(2-ethylbutanoyl)piperidin-4-yl]-N-(imidazo[1,2-a]pyridin-7-ylmethyl)benzamide] |
| 7.94 nM | O=C(NCc1ccn2ccnc2c1)c1ccc(C2CCN(C(=O)C3CC=CCC3)CC2)cc1 (centres unmarked) [Example 920, 4-[1-(cyclohex-3-en-1-ylcarbonyl)piperidin-4-yl]-N-(imidazo[1,2-a]pyridin-7-ylmethyl)benzamide] |
| 4.58 nM | Cc1cccc(C(=O)N2CCC(c3ccc(C(=O)NCc4ccn5ccnc5c4)cc3)CC2)c1 [Example 923, N-(imidazo[1,2-a]pyridin-7-ylmethyl)-4-[1-(3-methylbenzoyl)piperidin-4-yl]benzamide] |
| 2.06 nM | COCc1ccccc1C(=O)N1CCC(c2ccc(C(=O)NCc3ccn4ccnc4c3)cc2)CC1 [Example 925, N-(imidazo[1,2-a]pyridin-7-ylmethyl)-4-{1-[2-(methoxymethyl)benzoyl]piperidin-4-yl}benzamide] |
| 7.13 nM | COc1cccc(OC)c1C(=O)N1CCC(c2ccc(C(=O)NCc3ccn4ccnc4c3)cc2)CC1 [Example 927, 4-[1-(2,6-dimethoxybenzoyl)piperidin-4-yl]-N-(imidazo[1,2-a]pyridin-7-ylmethyl)benzamide] |
| 2.09 nM | CC(Oc1ccccc1)C(=O)N1CCC(c2ccc(C(=O)NCc3ccn4ccnc4c3)cc2)CC1 (centres unmarked) [Example 930, N-(imidazo[1,2-a]pyridin-7-ylmethyl)-4-[1-(2-phenoxypropanoyl)piperidin-4-yl]benzamide] |
| 6.77 nM | C[C@H]1CCCC[C@H]1OCC(=O)N1CCC(c2ccc(C(=O)NCc3ccn4ccnc4c3)cc2)CC1 [Example 931, N-(imidazo[1,2-a]pyridin-7-ylmethyl)-4-[1-({[(1R,2S)-2-methylcyclohexyl]oxy}acetyl)piperidin-4-yl]benzamide] |
